Data as given in patent US10030064B2, “Mammalian cell culture processes for protein production” (priority 2009, dated 2018).

Legend:
Type in all cases: cell-based, Chinese hamster
[1] = tested on: CHO cells secreting an IgG-fusion protein; assay: Shake flask CHO culture: SEC-HPLC of high molecular weight (HMW) species in secreted IgG-fusion protein
Experimental: The CHO cell line used in this study was originally subcloned from DG44 parental cells and cultured in a protein-free proprietary growth medium. The host cells were genetically engineered to secrete an IgG-fusion protein under the control of CMV promoter.
The experiments were carried out in 250-mL shake flasks (VWR international) with starting volumes of 100 mL and initial cell densities of 6×10^5 cells/mL. Shake flasks were placed on a shaker platform (VWR international) at 150 rpm rotating speed. Cells were cultured under standard humidified condition at 37° C. and 6% CO2, for a ten-day duration with daily pH adjustment using 1M sodium carbonate, and fed with glucose and glutamine every two days in order to maintain them at certain level. Cell density, cell viability and substrates/metabolites were offline-analyzed by an automated cell counting system Cedex (Innovatis AG, Bielefeld, Germany) and a Bioprofile Analyzer 400 (Nova Biomedical Corporation, Waltham, Mass.). Supernatant from each culture harvest was collected for SEC analysis.
The main components of HMW species were dimers and trimers formed covalently or non-covalently and categorically considered to be protein aggregates.

CHO cells [2] = assay: Fed-batch 5-L bioreactor CHO culture: sialic acid content and N-linked sialylated species fraction; settings: 1 μM DEX bolus addition
Experimental: Bioreactor experiments were performed in 5-L bioreactors (Sartorius AG, Goettingen, Germany) with initial working volumes of 1.5 L. Agitation, pH, and dissolved oxygen were controlled at 150 rpm, 7.05, and 50% air saturation, respectively. Temperature was initially controlled at 37° C., but was shifted to a lower temperature during the culture to extend culture viability. The bioreactors were operated in fed-batch mode and were fed daily starting on day 3 with the proprietary feed medium to maintain adequate concentrations for glucose and other nutrients. Samples were taken during the cell culture process and analyzed for cell density, cell viability, substrates and metabolites.
The sialic acid to recombinant protein molar ratio was calculated by determining the sialic acid and recombinant protein concentrations. Sialic acid (SA), including N-Acetylneuraminic (Neu5Ac) and N-glycolylneuraminic acid (Neu5Gc), was released by partial acid hydrolysis. The derivatives were then separated by reversed-phase HPLC to determine sialic acid content. The protein concentrations were determined by UV absorbance at 280 nm. Sialic acid content is reported as molar ratios, which is the total moles of Neu5Ac and Neu5Gc per mole of recombinant glycoprotein. Sialic acid contents are reported as normalized values, which are the actual values divided by an arbitrary value. The same divisor was used to normalize all sialic acid content data in the studies reported here.
High-pH anion-exchange chromatography with pulsed amperometric detection (HPAEC-PAD) was used for the profiling of N-linked oligosaccharides (Base and Spellman 1990; Townsend and Hardy 1991) to provide information on site-specific N-linked glycosylation. N-linked oligosaccharides were cleaved from protein and separated on HPAEC-PAD into four domains based on the amount of sialic acid present. Domain I represents the asialo species. Domains II, III, and IV are sialylated species and represent monosialylated, disialylated, and tri- and tetrasialylated species, respectively. N-linked sialylated species fraction is reported as the percentage of N-linked sialylated species within the total N-linked oligosaccharides species, which includes both asialo and sialylated species. N-linked sialylated species fractions are reported as normalized values, which are the actual values divided by an arbitrary value. The same divisor was used to normalize all N-linked sialylated species fraction data in the studies reported here.
The bioreactors were operated as described in the methods section.

CHO cells [3] = assay: Shake flask CHO culture in serum free medium: viable cell density, viability, growth rate, productivity (Example 3)
Experimental: The CHO cell line used in this study was subcloned from DG44 parental cells and cultured in a proprietary chemically-defined growth medium.
The experiments were carried out in 250-mL shake flasks (VWR international) with starting volumes of 100 mL and initial cell densities of 6×10^5 cells/mL. The cultures were placed on a shaker platform (VWR international) at 150 rpm and maintained at 37° C. and 6% CO2 for ten days. The cultures were sampled daily and the pH adjustment using 1M sodium carbonate, and fed with glucose and glutamine every two days in order to maintain them at certain levels. Cell density and viability were measured off-line a Bioprofile Analyzer 400 (Nova Biomedical Corporation, Waltham, Mass.).
The eluted protein was quantified using a 10-level standard curve.

CHO cells [4] = assay: Fed-batch 7-L, 500-L and 5000-L bioreactors with dexamethasone in the feed medium (Example 5)
Experimental: The CHO cell line used in this study was subcloned from DG44 parental cells and cultured in a proprietary growth medium.
Bioreactor experiments were performed in 7-L, 500-L and 5000-L bioreactors with starting working volumes around 3 L, 300 L and 3000 L, respectively. All the bioreactor runs started at 37° C. and shifted to lower temperature when cells entered production phase in order to extend the cell culture period. pH, and dissolved oxygen were maintained at 7.05, and 50% air saturation. Agitation rates for 7-L, 500-L and 5000-L scales are 180, 75 and 60 rpm respectively. All the bioreactor experiments were conducted in a fed batch mode with daily feeding of a protein-free medium in order to maintain the glucose and other nutrients at certain levels. […] Samples were taken during the cell culture process and analyzed for cell density, cell viability, substrates and metabolites.
The titer, sialic acid and HMW content assay were performed as described in the previous examples.

[5] = 10 μM DEX added two days after inoculation
[6] = treatment concentration 0.1 μM, added two days after inoculation
[7] = treatment concentration 1 μM, added two days after inoculation
[8] = treatment concentration 10 μM, added two days after inoculation

Structure (SMILES): C[C@@H]1C[C@H]2[C@@H]3CCC4=CC(=O)C=C[C@]4(C)[C@@]3(F)[C@@H](O)C[C@]2(C)[C@@]1(O)C(=O)CO [DEX, dexamethasone]
- decrease of percentage of HMW species ([1]; 0.1 μM DEX alone): approximately 17%
- reduction of protein aggregation (percentage of HMW species) ([1]; 1 μM DEX added day 2, supernatant day 10, vs control): 15%
- change of sialylated fraction between days 8 to 14 (CHO cells [2]): −7.7%
- change of total sialic acid content between days 8 to 14 (CHO cells [2]): −7.8%
- normalized N-linked sialylated species fraction (CHO cells [2]; day 8): 97.7±0.9
- normalized total sialic acid content (CHO cells [2]; day 8): 17.9±0.1
- increase of N-linked sialylated species fraction vs control (CHO cells [2]; day 14): 15.8%
- increase of total sialic acid content vs control (CHO cells [2]; day 14): 16.2%
- normalized N-linked sialylated species fraction (CHO cells [2]; day 14): 90.2±1.3
- normalized total sialic acid content (CHO cells [2]; day 14): 16.5±0.1
- final cell viability (day 10) (CHO cells [3]; 0.01 μM DEX added two days after inoculation): 53.1%
- percent increase of cell viability induced by DEX (CHO cells [3]; 0.1 μM DEX, with 1 μM RU-486): 4.7%
- percent increase of cell viability induced by DEX (CHO cells [3]; 0.1 μM DEX, without RU-486): 30.5%
- maximum specific productivity (normalized) (CHO cells [3]; 1 μM DEX added day 2): 7.0±0.6 ×10^−9
- normalized volumetric productivity (CHO cells [3]; 1 μM DEX added day 2, same for all cultures): 6.5
- reduction in cell growth rates compared to control (CHO cells [3]; 1 μM DEX added day 2, the day after DEX addition): ~30%
- viability on day 10 (CHO cells [3]; 1 μM DEX added on day 0): 63%
- viability on day 10 (CHO cells [3]; 1 μM DEX added on day 2): 68%
- viability on day 10 (CHO cells [3]; 1 μM DEX added on day 4): 72%
- viability on day 10 (CHO cells [3]; 1 μM DEX added on day 6): 74%
- percent increase of cell viability induced by DEX (CHO cells [3]; 1 μM DEX, with 1 μM RU-486): 5.7%
- percent increase of cell viability induced by DEX (CHO cells [3]; 1 μM DEX, without RU-486): 32.6%
- Peak VCD (CHO cells [3]; [5]): 6.5 ×10^6 cell/mL
- final cell viability (day 10) (CHO cells [3]; [5]): 64.0%
- Final VCD (CHO cells [3]; [6]): 7.64 ×10^6 cells/mL
- Peak VCD (CHO cells [3]; [6]): 7.99 ×10^6 cells/mL
- Viability (final, day 10) (CHO cells [3]; [6]): 72.3%
- Final VCD (CHO cells [3]; [7]): 8.40 ×10^6 cells/mL
- Peak VCD (CHO cells [3]; [7]): 9.02 ×10^6 cells/mL
- Viability (final, day 10) (CHO cells [3]; [7]): 75.8%
- Final VCD (CHO cells [3]; [8]): 7.38 ×10^6 cells/mL
- Peak VCD (CHO cells [3]; [8]): 7.49 ×10^6 cells/mL
- Viability (final, day 10) (CHO cells [3]; [8]): 82.3%
- Day 14 average viability (CHO cells [4]; 7-L scale): 88%
- Day 14 titer (normalized value) (CHO cells [4]; 7-L scale): 13.2
- Peak sialic acid level (normalized value) (CHO cells [4]; 7-L scale): 16.0
- Day 14 average viability (CHO cells [4]; 500-L scale): 84%
- Day 14 titer (normalized value) (CHO cells [4]; 500-L scale): 11.6
- Peak sialic acid level (normalized value) (CHO cells [4]; 500-L scale): 18.0
- Day 14 average viability (CHO cells [4]; 5000-L scale): 91%
- Day 14 titer (normalized value) (CHO cells [4]; 5000-L scale): 13.6
- Peak sialic acid level (normalized value) (CHO cells [4]; 5000-L scale): 19.0
- drop of sialic acid by the end of the runs (CHO cells [4]; all scales): approximately 2.6 units
